Test results reported in patent publication US20090319044A1, “Methods and Compositions for Improving the Incorporation of Orthopaedic and Orthodontic Implants” (priority 2006, published 2009).

Assays:
MC3T3 cells = experiment: Cytokine gene expression after A23187 treatment (Quantitative-RT PCR); type: cell-based; settings: 1 to 6 hours after stimulation, relative to controls
Experimental: Wear particles and calcium signaling induce cytokine expression in macrophages and osteoblasts. Cytokine gene expression was measured following A23187 treatment in MC3T3 cells by Quantitative-RT PCR. RNA was isolated from the cells using an RNeasy Mini Kit (Qiagen, Valencia, Calif.), and Quantitative-RT PCR was performed using a SYBR Green master mix (Roche, Ind.).

[1] = tested on: RAW 264.7 mouse macrophage-like cells (osteoclast precursors); experiment: Cell death assay (annexin V-FITC / propidium iodide flow cytometry); type: cell-based; settings: 50 μM zoledronate, 24 hours
Experimental: MC3T3 cells, which are well-established mouse calvarial cells of osteoblastic lineage, and RAW 264.7 mouse macrophage-like cells, which are well-known to form osteoclasts, were purchased from the American Type Culture Collection and Tissue (Manassas, Va.). MC3T3 and RAW 264.7 cells were grown in Dulbecco's Modified Eagle Medium supplemented with 10% fetal bovine serum, 100 μ/mL penicillin, […] streptomycin, and 0.1% fungizone (amphotericin B). The cells were kept at 37° C. in a humidified atmosphere of 5% CO2 and 95% air.
Cell number was measured, and the cells were centrifuged and resuspended in binding buffer (A.G. Scientific, San Diego, Calif.) to a final cell density of 5×10^5 cells/mL. […] of annexin V-FITC (A.G. Scientific, San Diego, Calif.) was added to […] of cell suspension and incubated for 10 minutes. The cells were centrifuged, washed with PBS and resuspended again in […] of binding buffer. […] of 20 mg/mL propidium iodide (A.G. Scientific, San Diego, Calif.) was added to the cell suspension, and flow cytometry was performed using a FACS Calibur (Becton Dickson, Franklin Lakes, N.J.). Monoparametric cytograms of annexin V-FITC fluorescence (FL1) versus number of events were created using the CellQuest program gating for living cells and excluding dead cells on the basis of their propidium iodide uptake.

[2] = tested on: rodent osteolysis model (UHMWPE wear debris, femur); experiment: First in vivo study: Faxitron and micro-CT imaging of osteolysis around implants; parameters: species or system rat; settings: 24 weeks, vs HA-coated control
Source text: (§1) More particularly, sterile ultrahigh molecular weight polyethylene (UHMWPE) wear debris particles (0.5 cc, 0.1-3 micron particle size) were introduced into the intramedullary cavity of bilateral femurs of 8 rats, which served as the control group in this example. The particles were introduced after reaming the femurs with an 18 gauge needle at the knee joint. Sterile wear debris particles were used in this example to stimulate a wear debris reaction and promote osteolysis. Hydroxyapatite-coated plastic pins and hydroxyapatite-coated titanium pins (1.5 mm×20 mm, Stryker, Kalamazoo, Mich.) were then inserted into the intramedullary canal of the right femur and left femur, respectively.
(§2) The test group, which consisted of 8 rates, also had 0.5 cc of sterile UHMWPE wear debris particles introduced into the femoral intramedullary canal after reaming with an 18 gauge needle at the knee joint.
The rats of the test and control groups were sacrificed at 24 weeks following insertion of the pins and the femurs were retrieved. Faxitron radiographs (Faxitron, Wheeling, Ill.) of the femurs taken from the test and control rats were obtained. […] The femurs with plastic pin implants (the right femurs) were imaged by micro-CT (Stratec XCT-3000, Stratec Medizintechnik GmbH, Pforzheim, Germany).

[3] = tested on: rodent osteolysis model (UHMWPE wear debris, femur); experiment: First in vivo study: pull-out strength testing of titanium pins; parameters: species or system rat; settings: 24 weeks
Source text: as §1, §2
Incorporation of the implants by the host bone was evaluated by “pull-out strength testing” of the titanium pins (left femurs) (MTS 858 Bionix, MTS Systems Corporation, Minneapolis, Minn.). Such “pull-out strength testing” measures the amount of force (i.e., pull force) that must be applied to displace (or remove) the implant from the bone.

[4] = tested on: polyethylene particle-induced osteolysis rodent femur model; experiment: Second in vivo study: dual energy X-ray absorptiometry (DXA); parameters: species or system Sprague-Dawley rats; bone area (DXA): unit not given here; settings: HA-coated nail soaked in 50 μM zoledronate, 6 weeks and 6 months pooled
Source text: (§3) Experimental Design and Surgical Procedure. In this example, a polyethylene particle-induced osteolysis rodent femur model was used to examine the advantages of using a HA-zoledronate composite on the implant surface for osseous integration and implant stability in the presence of UHMWPE particles. Two critical parameters were examined, namely, peri-implant bone quality (osteolysis) and osseointegration (implant stability).
All procedures involving animals were approved by the Institutional Animal Care and Use Committee in accordance with the Association for the Assessment and Accreditation of Laboratory Animal Care guidelines (Columbia University Animal Proctocol AC-AAM5306). In this example, a rodent femur intramedullary nailing model was used with UHMWPE wear debris particles instilled into the intramedullary canal after reaming the femur to stimulate a wear debris reaction. Thirty-two six-month-old adult male Sprague-Dawley rats (weight, 400-500 gm) were purchased (Charles Laboratory, Cambridge, Mass.).
(§4) The 32 rats were divided into two study groups, each composed of 16 rats. Sixteen randomly selected rats served as a control group, which received HA-coated nails. […] Eight rats in each group were sacrificed at 6 weeks following the intramedullary nailing of HA-coated implants and another 8 rats from each group were sacrificed 6 months following the surgery.
After induction of general anesthesia using ketamine (60 mg/kg) and xylazine (5 mg/kg), hair over the knee was removed with a clipper. Right and left knee regions were prepared with 70% alcohol and 1% Betadine solution. A one centimeter longitudinal skin incision was made over the anterior aspect of the distal femur. […]
(§5) In the control group, a radiolucent UHMWPE intramedullary nail, which was coated with HA, was implanted into the right distal femur in a retrograde manner, while a HA-coated titanium intramedullary nail was implanted into the left distal femur. […] Activity level, food intake, the condition of the surgical wound, and clinical signs of infection were monitored daily. […]

[5] = tested on: polyethylene particle-induced osteolysis rodent femur model; experiment: Second in vivo study: micro-CT periprosthetic bone area; parameters: species or system Sprague-Dawley rats; settings: HA-coated UHMWPE nail soaked in 50 μM zoledronate; right femora; times pooled; p<0.0001 vs control
Source text: as §3
as §4, with “surgery. […]” for “surgery.”
as §5
Micro-computed Tomography (micro-CT). The right femura with UHMWPE pins were imaged using a quantitative CT (Stratec XCT-3000), running the XCT Series software, version 5.21 (Stratec Medizintechnik GmbH, Pforzheim, Germany). […]

[6] = tested on: polyethylene particle-induced osteolysis rodent femur model; experiment: Second in vivo study: biomechanical pull-out testing; parameters: species or system Sprague-Dawley rats
Source text: as §3, §4
After induction of general anesthesia using ketamine (60 mg/kg) and xylazine (5 mg/kg), hair over the knee was removed with a clipper. Right and left knee regions were prepared with 70% alcohol and 1% Betadine solution. A one centimeter longitudinal skin incision was made over the anterior aspect of the distal femur. A medial parapatellar approach was made to expose the intercondylar notch with the knee in flexion. An entry hole was made with a 18-gauge needle. The distal rat femora were reamed with an 18-gauge needle, and then Ceridust® UHMWPE particles (0.1 mL of 50 vol. %; 0.1 to 3 micron in size; Clariant GmbH, Germany) were introduced into the intradmedullary canal prior to implantation.
In the control group, a radiolucent UHMWPE intramedullary nail, which was coated with HA, was implanted into the right distal femur in a retrograde manner, while a HA-coated titanium intramedullary nail was implanted into the left distal femur. The joint capsule was repaired using a 2-0 Vicryl® suture (Johnson & Johnson, New Brunswick, N.J.). The skin was repaired with metal staples. Rats were allowed weight bearing as tolerated in their cages, while subcutaneous injections of buprenorphine (0.05 mg/kg) were given once a day for two post-operative days. Activity level, food intake, the condition of the surgical wound, and clinical signs of infection were monitored daily.
The purpose of using the UHMWPE nail was to minimize imaging artifacts inherent in metal implants for a more accurate analysis of dual energy x-ray absorptiometry (DXA) and microcomputed tomography (micro-CT) analyses, which are describe below. The metallic nail was used for biomechanical testing. The intramedullary nails, 1.4 mm in diameter and 20 mm in length, were custom-made for this study (Stryker, Mahwah, N.J.).
Biomechanical Testing. The left femora of both the 6-week and 6-month control and treatment groups were subjected to biomechanical testing following the imaging studies described herein. […]

[7] = HA-coated titanium nail soaked in 50 μM zoledronate, left femora, times pooled, p<0.0001 vs control

Molecule | COX-2 expression (MC3T3 cells) | TNF-alpha expression (MC3T3 cells) | apoptosis in RAW cells [1] | osteolysis around plastic implants (micro-CT) ([2]; HA-coated plastic pins presoaked in zoledronate 15 minutes, right femur) | osteolysis around titanium implant (Faxitron radiographs) ([2]; HA-coated titanium pins presoaked in zoledronate 15 minutes, left femur) | peak force to extract the titanium pin implants ([3]; zoledronate-treated HA-coated titanium pins vs control, p<0.0001) | pullout energy ([3]; zoledronate-treated HA-coated titanium pins, p=0.0085 vs control) | bone mineral content (DXA) ([4]; p<0.0001 vs control) | bone mineral density (DXA) ([4]; p<0.0001 vs control) | bone area (DXA) ([4]; p=0.1222 vs control) | amount of bone mass in the periprosthetic area (micro-CT) [5] | increase in total energy to pull-out over control ([6]; 6-month group) | increase in total energy to pull-out over control ([6]; 6-weeks group) | average peak pullout force [6, 7] | energy required to completely pull the pin out of the bone [6, 7]
CNc1ccc2oc(C[C@H]3O[C@@]4(CC[C@H]3C)O[C@H]([C@H](C)C(=O)c3ccc[nH]3)[C@H](C)C[C@H]4C)nc2c1C(=O)O [A23187] | increase | increase | – | – | – | – | – | – | – | – | – | – | – | – | –
zoledronate | – | – | 100% | not around such implants in the test rats | not around the titanium implants in the test rats | statistically higher | 5.71±3.42 N-m | 0.417 ± 0.064 g | 0.328±0.036 g/cm^2 | 1.265±0.081 | 2.388±0.960 mm^2 | 170.7% | 542.8% | 241.0±95.1 N | 521.6±293.8 N-mm
